In patent publication US7632952B2, “Benzothiazoles and the use thereof as medicaments” (Aventis Pharma S.A., priority 2004, dated 2009):
Where a name gives a salt, the structure may show the parent alone. Read-outs that look alike come from different tables or passages of the source.

Columns and labels:
CDK2/cyclin E = CDK2/cyclin E (Homo sapiens, UniProt P24941); assay: CDK2/cyclin E Flashplate test in 96-well format; format: biochemical
Description: 1. Protocol CDK2/cyclin E:
Purification of the CDK2/cyclin E-(His)6 Complex by IMAC (Immobilized Metal Affinity Chromatography):
Two recombinant baculoviruses bearing the human sequences coding, respectively, for CDK2 and cyclin E (the latter comprising a C-terminal hexahistidine tag) are used to coinfect insect Sf21 cells. Two to three days after the start of coinfection, the cells are harvested by centrifugation and then stored at −40° C. until the time of use. After thawing and mechanical lysis of the cells, the complex present in the lysis supernatant is purified by affinity chromatography on nickel (IMAC), and stored at −80° C.
CDK2/cyclin E Flashplate Test in 96-Well Format
A format in 96-well plates coated with streptavidin is used to test the activity of the compounds on the kinase activity of CDK2/cyclin E.
To perform this test, the biotinylated peptide substrate, a fragment of the pRb protein (biotinyl-[…]-OH) is dissolved at a concentration of 1 mM in kinase buffer (HEPES/NaOH 50 mM, NaCl 1 mM, MgCl2 5 mM, pH 7.5) in order to constitute a stock solution stored at −20° C. in the form of 110 μl aliquots. On the day of the experiment, an aliquot of this solution is thawed and diluted in kinase buffer containing 1 mM of dithiothreitol, and added to the buffer extemporaneously, in order to obtain a concentration of 14.3 μM. 70 μl of this solution are added to each well of the Flashplate in order to obtain a final substrate concentration of 10 μM during the enzymatic reaction, performed in a final volume of the reaction medium of 100 μl (cf. below).
Intermediate dilutions of inhibitors (products of the invention) at various concentrations are prepared in DMSO from stock solutions at 10 mM in separate tubes. 1000 μM, 333.3 μM, 111.1 μM, 37.03 μM, 12.35 μM, 4.11 μM and 1.37 μM dilutions are thus prepared. 1 μl of each of these solutions (or 1 μl of DMSO for the controls) is transferred into the wells of the test plate.
Into each well are then added 19 μl of a solution of a mixture of adenosine triphosphate (ATP) and of ATPy^33P in the kinase buffer at a concentration of 5.26 μM of ATP total and 52.6 μCi/ml of ^33P. The enzymatic reaction is triggered by addition of 10 μl per well of a solution of CDK2/cyclin E at 200 nM in the kinase buffer containing 1 mM of dithiothreitol (or 10 μl of kinase buffer containing 1 mM of dithiothreitol for the reaction blanks).
After addition of all the reagents, the plate is incubated at 30° C. with orbital stirring at 650 rpm.
When the incubation is complete, the plate is washed three times with 300 μl per well of PBS (phosphate-buffered saline, pH=7.4, without calcium or magnesium, reference 10010-015, Gibco BRL). The incorporation of ^33P into the peptide is quantified by scintillation counting using a Packard Topcount.NXT machine. The inhibitory activity of the products of the invention is evaluated by measuring the inhibitory concentration that allows a 50% reduction in the enzymatic activity (IC50).

CDK4/cyclin D1 = CDK4/cyclin D1 (Homo sapiens, UniProt P11802); assay: CDK4/cyclin D1 Flashplate test in 96-well format; format: biochemical
Sequence of CDK4/cyclin D1 (P11802 whole entry): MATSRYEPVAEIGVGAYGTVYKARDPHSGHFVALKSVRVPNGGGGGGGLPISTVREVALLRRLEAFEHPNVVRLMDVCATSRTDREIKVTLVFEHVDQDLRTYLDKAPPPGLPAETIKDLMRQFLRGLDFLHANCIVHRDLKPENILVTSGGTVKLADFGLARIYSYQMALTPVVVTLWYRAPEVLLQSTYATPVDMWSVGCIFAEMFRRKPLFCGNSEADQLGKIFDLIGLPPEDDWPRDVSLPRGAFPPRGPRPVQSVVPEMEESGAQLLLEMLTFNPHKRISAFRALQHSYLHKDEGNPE
Sequence of CDK4/cyclin D1 (P24385 whole entry partner): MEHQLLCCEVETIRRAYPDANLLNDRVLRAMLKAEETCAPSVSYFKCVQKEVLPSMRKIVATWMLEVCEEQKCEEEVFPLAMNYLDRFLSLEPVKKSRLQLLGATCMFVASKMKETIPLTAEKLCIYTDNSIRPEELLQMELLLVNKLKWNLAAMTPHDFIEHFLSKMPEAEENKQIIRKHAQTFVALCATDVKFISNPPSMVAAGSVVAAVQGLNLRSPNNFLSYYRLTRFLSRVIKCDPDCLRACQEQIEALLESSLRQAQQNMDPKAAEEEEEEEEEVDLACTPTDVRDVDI
Description: 2. CDK4/cyclin D1 Protocol:
Purification of the CDK4-HA/cyclin D1-(His)6 Complex by IMAC (Immobilized Metal Affinity Chromatography):
Two recombinant baculoviruses bearing the human sequences coding, respectively, for CDK4-HA (C-terminal fusion with the hemaglutinin tag) and for cyclin D1-(His)6 are used to coinfect insect Sf9 cells. Sixty hours after the start of the coinfection, the cells are harvested by centrifugation and then frozen at −20° C. until the time of use.
CDK4/cyclin D1 Flashplate Test in 96-Well Format
A test in 96-well “Flashplate” plates coated with streptavidin is used to evaluate the inhibition of the CDK4/cyclin D1 kinase complex by the products of the invention. To perform this test, the biotinylated peptide substrate, a fragment of the pRb protein (biotinyl-[…]-amide) is dissolved at a concentration of 2 mM in kinase buffer (HEPES/NaOH 50 mM, NaCl 1 mM, MgCl2 5 mM, pH 7.5) in order to constitute a stock solution stored at −20° C. in the form of 110 μl aliquots. On the day of the experiment, an aliquot of this solution is thawed and diluted in kinase buffer containing 1 mM of dithiothreitol, and added to the buffer extemporaneously, in order to obtain a final peptide concentration of 2.571 μM. 70 μl of this solution are added to each well of the Flashplate in order to obtain a final substrate concentration of 1.8 μM during the enzymatic reaction, performed in a final volume of the reaction medium of 100 μl (cf. below). Intermediate dilutions of inhibitors (products of the invention) at various concentrations are prepared in DMSO from stock solutions at 10 mM in separate tubes. 1000 μM, 333.3 μM, 111.1 μM, 37.03 μM, 12.35 μM, 4.11 μM and 1.37 μM dilutions are thus prepared. 1 μl of each of these solutions (or 1 μl of DMSO for the controls) is then transferred into the wells of the test plate. Into each well are then added 19 μl of a solution of a mixture of adenosine triphosphate (ATP) and of ATPy^33P in the kinase buffer at a concentration of 5.26 μM of ATP total and 78.9 μCi/ml of ^33P. The enzymatic reaction is triggered by addition of 10 μl per well of a solution of CDK4/cyclin D1 at 250 nM in the kinase buffer containing 1 mM of dithiothreitol (or 10 μl of kinase buffer containing 1 mM of dithiothreitol for the reaction blanks).
After addition of all the reagents, the test plate is incubated at 30° C. with orbital stirring at 650 rpm. After the incubation, the plate is washed three times with 300 μl per well of PBS (phosphate-buffered saline, pH=7.4, without calcium or magnesium, reference 10010-015, Gibco BRL). The incorporation of ^33P into the substrate peptide is quantified by scintillation counting using a Packard Topcount.NXT machine. The inhibitory activity of the products of the invention is evaluated by measuring the inhibitory concentration that allows a 50% reduction in the enzymatic activity (IC50).

HeLa = HeLa proliferation; format: cell-based; settings: Homo sapiens, read-out: HeLa proliferation EC50 (nM) DG

## CC(C)CNc1ccc(S(=O)(=O)Oc2ccc3nc(NC(=O)CC4CCNCC4)sc3c2)cc1 [Example 28, 4-isobutylaminobenzenesulfonic acid 2-(2-piperid-4-ylacetylamino)benzothiazol-6-yl ester hydrochloride]
CDK2/cyclin E; read-out: CDK2 IC50
  IC50: 0.266 µM
CDK4/cyclin D1
  IC50: 0.399 µM
HeLa
  EC50: 1330 nM

## O=C(CC1CCNCC1)Nc1nc2ccc(OS(=O)(=O)c3ccc(NCCNCCO)cc3)cc2s1 [Example 19c, 4-[2-(2-Hydroxyethyl-amino)ethylamino]benzene-sulfonic acid 2-(2-piperid-4-ylacetylamino)benzo-thiazol-6-yl ester hydro-chloride]
CDK2/cyclin E; read-out: CDK2 IC50
  IC50: 5.78 µM
CDK4/cyclin D1
  IC50: 1.22 µM

## CC(C)N(CCNc1ccc(S(=O)(=O)Oc2ccc3nc(NC(=O)CCCCCCCN)sc3c2)cc1)C(C)C [Example 40, 4-(2-diisopropylaminoethylamino)benzenesulfonic acid 2-(8-aminooctanoylamino)benzothiazol-6-yl ester]
CDK2/cyclin E; read-out: CDK2 IC50
  IC50: 0.209 µM
CDK4/cyclin D1
  IC50: 0.253 µM
HeLa
  EC50: 7550 nM

## CCNCCNc1ccc(S(=O)(=O)Oc2ccc3nc(NC(=O)CC4CCNCC4)sc3c2)cc1 [Example 19b, 4-(2-Ethylaminoethyl-amino)benzenesulfonic acid 2-(2-piperid-4-ylacetyl-amino)benzothiazol-6-yl ester hydrochloride]
CDK2/cyclin E; read-out: CDK2 IC50
  IC50: 5.47 µM
CDK4/cyclin D1
  IC50: 0.732 µM

## NCC(=O)Nc1nc2ccc(OS(=O)(=O)c3cccs3)cc2s1 [Example 33b, Thiophene-2-sulfonic acid 2-(2-amino-acetylamino)benzothiazol-6-yl ester; compound with trifluoroacetic acid]
CDK2/cyclin E; read-out: CDK2 IC50
  IC50: 6.34 µM
CDK4/cyclin D1
  IC50: > 10 µM

## CCCC(=O)Nc1nc2ccc(OS(=O)(=O)c3ccc(NCCNC(C)C)cc3)cc2s1 [Example 73, 4-(2-isopropylaminoethylamino)benzenesulfonic acid 2-butyrylaminobenzothiazol-6-yl ester; compound with trifluoroacetic acid]
CDK2/cyclin E; read-out: CDK2 IC50
  IC50: 0.185 µM
CDK4/cyclin D1
  IC50: 0.246 µM
HeLa
  EC50: 249 nM

## NCCCCCCCC(=O)Nc1nc2ccc(OS(=O)(=O)c3cccs3)cc2s1 [Example 33f, Thiophene-2-sulfonic acid 2-(8-amino-octanoylamino)benzothiazol-6-yl ester; compound with trifluoroacetic acid]
CDK2/cyclin E; read-out: CDK2 IC50
  IC50: 1.84 µM
CDK4/cyclin D1
  IC50: 7.1 µM

## CC(C)(O)CNc1ccc(S(=O)(=O)Oc2ccc3nc(NC(=O)CCC4CCNCC4)sc3c2)cc1 [Example 84, 4-(2-hydroxy-2-methylpropylamino)benzene-sulfonic acid 2-(3-piperidin-4-ylpropionylamino)benzothiazol-6-yl ester hydrochloride]
CDK2/cyclin E; read-out: CDK2 IC50
  IC50: 0.22 µM
CDK4/cyclin D1
  IC50: 0.683 µM

## CC(C)(O)CNc1ccc(S(=O)(=O)Oc2ccc3nc(NC(=O)C4CCNCC4)sc3c2)cc1 [Example 5, 4-(2-hydroxy-2-methylpropylamino)benzene-sulfonic acid 2-[(piperidine-4-carbonyl)amino]benzothiazol-6-yl ester]
CDK2/cyclin E; read-out: CDK2 IC50
  IC50: 0.995 µM
CDK4/cyclin D1
  IC50: 3.97 µM

## CCNCCNc1ccc(S(=O)(=O)Oc2ccc3nc(NC(=O)CCCCCCCN)sc3c2)cc1 [Example 22b, 4-(2-ethylaminoethyl-amino)benzene sulfonic acid 2-(8-aminooctanoyl-amino)benzothiazol-6-yl ester]
CDK2/cyclin E; read-out: CDK2 IC50
  IC50: 0.547 µM
CDK4/cyclin D1
  IC50: 0.783 µM

## NCCCCCCCC(=O)Nc1nc2ccc(OS(=O)(=O)c3ccc(NCCNCCO)cc3)cc2s1 [Example 22c, 4-[2-(2-hydroxyethyl-amino)ethylamino]benzene-sulfonic acid 2-(8-amino-octanoylamino)benzo-thiazol-6-yl ester hydro-chloride]
CDK2/cyclin E; read-out: CDK2 IC50
  IC50: 1.1 µM
CDK4/cyclin D1
  IC50: 1.57 µM

## O=C(CC1CCNCC1)Nc1nc2ccc(OS(=O)(=O)c3ccc(NCCCn4ccnc4)cc3)cc2s1 [Example 19a, 4-(3-Imidazol-1-ylpropyl-amino)benzenesulfonic acid 2-(2-piperid-4-ylacetyl-amino)benzothiazol-6-yl ester hydrochloride]
CDK2/cyclin E; read-out: CDK2 IC50
  IC50: 2.72 µM
CDK4/cyclin D1
  IC50: 0.471 µM

## CC(C)N(CCNc1ccc(S(=O)(=O)Oc2ccc3nc(NC(=O)C4CNC4)sc3c2)cc1)C(C)C [Example 39, 4-(2-diisopropylaminoethylamino)benzenesulfonic acid 2-[(azetidine-3-carbonyl)amino]benzothiazol-6-yl ester]
CDK2/cyclin E; read-out: CDK2 IC50
  IC50: 3.06 µM
CDK4/cyclin D1
  IC50: 2.33 µM

## CC1(C)CC(Nc2ccc(S(=O)(=O)Oc3ccc4nc(NC(=O)C5CC5)sc4c3)cc2)CC(C)(C)N1[O] [Example 87, 4-(1-oxyl-2,2,6,6-tetramethylpiperidin-4-ylamino)-benzenesulfonic acid 2-(cyclopropanecarbonylamino)benzothiazol-6-yl ester]
CDK2/cyclin E
  IC50: 0.809 µM

## CC(C)NCCNc1ccc(S(=O)(=O)Oc2ccc3nc(NC(=O)CC4CCNCC4)sc3c2)cc1 [Example 18, 4-(2-isopropylaminoethylamino)benzenesulfonic acid 2-(2-piperid-4-ylacetylamino)benzothiazol-6-yl ester hydrochloride]
CDK2/cyclin E; read-out: CDK2 IC50
  IC50: 2.68 µM
CDK4/cyclin D1
  IC50: 0.48 µM

## CC(C)N(CCNc1ccc(S(=O)(=O)Oc2ccc3nc(NC(=O)CC4CCNCC4)sc3c2)cc1)C(C)C [Example 42, 4-(2-diisopropylaminoethylamino)benzenesulfonic acid 2-(2-piperid-4-ylacetylamino)benzothiazol-6-yl ester]
CDK2/cyclin E; read-out: CDK2 IC50
  IC50: 1.14 µM
CDK4/cyclin D1
  IC50: 0.202 µM

## CNCC(=O)Nc1nc2ccc(OS(=O)(=O)c3cccs3)cc2s1 [Example 33c, Thiophene-2-sulfonic acid 2-(2-methylamino-acetylamino)benzothiazol-6-yl ester; compound with trifluoroacetic acid]
CDK2/cyclin E; read-out: CDK2 IC50
  IC50: 8.27 µM
CDK4/cyclin D1
  IC50: > 10 µM

## NCCC(=O)Nc1nc2ccc(OS(=O)(=O)c3cccs3)cc2s1 [Example 33d, Thiophene-2-sulfonic acid 2-(3-amino-propionylamino)benzothiazol-6-yl ester; compound with trifluoroacetic acid]
CDK2/cyclin E; read-out: CDK2 IC50
  IC50: 2.95 µM
CDK4/cyclin D1
  IC50: 8.27 µM
